Data set [1] deals with CVB3. As to the kind of experiment: Inhibition of CVB3-induced cytopathic effects in Hep-2 cells (MTT). The format is cell-based, Coxsackievirus B3. Conditions: for EC50 / inhibition at 160 µM: Enterovirus B; for EC50: 100 TCID50 CVB3, 48 h, MTT, read-out: EC50 (50% protection from virus-induced cytopathogenicity), CVB3; for protection against CVB3-induced CPEs (microscopy): 120 μM W-9, 160 μM W-13, 160 μM W-15; for inhibition at 160 µM: CVB3, at 160 μM, read-out: inhibition of CVB3 infections. On the procedure:
(§1) Figure 1 Antiviral activities of novel 2-benzoxyl-phenylpyridine derivatives against CVB3 and ADV7. […] Hep-2 or HeLa cells were infected with 100 TCID50 of CVB3 or ADV7 for 1.5 h at 37 °C. Then, the inocula were aspirated and the cells were incubated with various concentrations of test compounds for 48 h. Cell viability was determined using the MTT assay. (b) Images showing the morphology of Hep-2 and HeLa cells treated with 120 μM W-9, 160 μM W-13, or 160 μM W-15 (magnification, 20×).
(§2) The antiviral activities of compounds against CVB3 and ADV7 were determined by measuring their inhibition of virus-induced CPEs in acutely infected Hep-2 and HeLa cells, respectively. Confluent cell monolayers in 96-well plates were infected with 100 TCID50 of CVB3 or ADV7 for 1.5 h at 37 °C, inocula were aspirated, and the cells then were incubated with various concentrations of compounds at 37 °C, 5% CO2, for 48 h. CPEs were observed by microscopy and the viability of cells was determined using MTT assays. The concentrations of test compounds required to achieve 50% protection from virus-induced cytopathogenicity (EC50 values) were determined. Adverse effects of tested compounds on host cells were also assessed using the MTT method after exposing uninfected cells to various concentrations of test compounds for 48 h at 37 °C. The CC50 values of compounds were calculated using SPSS software and selectivity indices were the ratio of CC50:EC50. Each experiment was performed in triplicate and at least three times, independently.
On the technique in general: Protection from cytopathic effect is a common read-out in antiviral testing.

The next data set has as its system ADV7. As to the kind of experiment: Inhibition of ADV7-induced cytopathic effects in HeLa cells (MTT). It counts as cell-based, adenovirus type 7. The conditions noted are these: for EC50 / inhibition at 160 µM: Human mastadenovirus B; for EC50: 100 TCID50 ADV7, 48 h, MTT, read-out: EC50 (50% protection from virus-induced cytopathogenicity), ADV7; for protection against ADV7-induced CPEs (microscopy): 120 μM W-9, 160 μM W-13, 160 μM W-15; for inhibition at 160 µM: read-out: inhibition of ADV7 infections. On the procedure: as §1, §2

In data set [2] the test system is CVB3. The data set is described as follows: Viral adsorption/entry analysis. Conditions: Hep-2 cells, CVB3 10^6 TCID50, 2 h adsorption; 120 μM W-9, 160 μM W-13, W-15, ribavirin. It counts as cell-based, Coxsackievirus B3. On the procedure:
Figure 3 Analysis of the modes of action of W9, W13, and W15 against CVB3. (a) Analysis of effective stage. The antiviral effects of test compounds against CVB3 were detected by measuring cell viability after 48 h of infection when cells were treated with W9, W13, or W15 before, simultaneously, or after inoculation with CVB3 (100 TCID50). (b) Analysis of the effects on CVB3 adsorption. Mock-, 120 μM W-9-, 160 μM W-13-, 160 μM W-15-, or 160 μM ribavirin-treated CVB3 (10^6 TCID50) was inoculated onto Hep-2 cells and adsorbed for 2 h. Infected cells were then harvested and subjected to virus titration, using the TCID50 method. (c) The effects of test compounds on CVB3 release from Hep-2 cells. Hep-2 cells infected with 100 TCID50 of CVB3 were incubated with test compounds for 12 h, then cells and culture supernatants (intra- and extracellular) analyzed for virus yield, separately or together. Mock, no infection; VC, virus control. Values represent the means ± SDs of three independent experiments. * p < 0.05; ** p < 0.01, compared with the virus control group.
To this end, Hep-2 cells were mock-treated or inoculated with CVB3 (10^6 TCID50) treated with 120 μM W-9, 160 μM W-13, 160 μM W-15, or 160 μM ribavirin, and adsorbed for 2 h. Infected cells were then harvested and subjected to virus titration, using the TCID50 method.
Cells were infected with CVB3 (10^6 TCID50) containing 120 μM W-9, 160 μM W-13, 160 μM W-15, or 160 μM ribavirin, after 2 h adsorption at 37 °C, inocula were discarded, and the cells were washed three times with phosphate buffered saline (PBS), harvested, following three freeze-thaw cycles, and subjected to virus titration. Cells infected with CVB3 in the absence of test compounds were used as untreated virus-infected controls.

Data set [3] concerns CVB3. As to the kind of experiment: Time of (drug) addition experiment. The format is cell-based, Coxsackievirus B3. Conditions: compound present −1–10, 0–10 or 2–10 h; yield at 12 h pi; 120 μM W-9, 160 μM W-13, W-15, ribavirin. Here is the method:
To further elucidate the mechanisms underlying the activities of W9, W13, and W15 against CVB3 propagation in cells, we conducted a time-of-addition experiment. Briefly, 120 μM W-9, or 160 μM W-13, W-15 or ribavirin, were added to Hep-2 cells at different time periods following CVB3 infection and progeny virus yield was determined at 12 h post-infection (pi). […] In contrast, when compounds were added during the 4–10 h stage after viral infection, production of viral progeny increased somewhat, however, compared with the virus control group, the inhibition effect was still clear. Drug treatments during other periods following CVB3 infection led to a gradual increase in viral yields, reflecting a loss of antiviral effects.
Figure 4 Time-of-addition assay. 120 μM W-9, or 160 μM W-13, W-15, or ribavirin, were added to Hep-2 cells for different time periods after CVB3 infection. Progeny virus yield was determined at 12 h post-infection ((−1)–0 h, viral infection period; 0–10 h, period of virus proliferation in cells). Values are presented as means ± SDs. * p < 0.05; ** p < 0.01, compared with the virus control group.
Hep-2 cells were infected with 100 TCID50 of CVB3 and then 120 μM W-9, 160 μM W-13, 160 μM W-15, or 160 μM ribavirin were added for different time periods (−1–0, 0–10, 2–10, 4–10, 6–10, 8–10, or −1–10 h pi, where –1–0 h is the viral infection period and 0–10 h is the period of virus proliferation in the cells). Cells and culture supernatants were harvested at 12 h pi and subjected to three freeze-thaw cycles, after which virus titers were determined by the Reed–Muench method.

Read-outs that look alike come from different tables or passages of the source.

The term EC50 denotes the midpoint of the concentration-response curve. In the case of `NC(=O)c1ncn([C@@H]2O[C@H](CO)[C@@H](O)[C@H]2O)n1` [Ribavirin, reference compound], in the data set on CVB3 [1], the “SI (CC50/EC50), CVB3” value is listed as 8.3; the “maximum inhibition of CVB3” value is 63.0%; the EC50 came out at 101 µM. Further, in the data set on ADV7, the “SI (CC50/EC50), ADV7” value is recorded as 7.1; the “maximum inhibition of ADV7” value was determined as 72.4%; the EC50 was 114 µM. In addition, the “virus titer during virus attachment (adsorption/entry)” value in the data set on CVB3 [2] was “no significant decrease in virus titer”. Further, the “progeny virus titer in time-of-addition assay” value (from here on “progeny virus titer”) with CVB3 [3] is “very similar effects”.
What is called inhibition is the relative decrease from the control value, in per cent. Consider `O=C(Oc1cc(Cl)ccc1-c1ccccn1)c1ccccc1` [W9], for which, in the data set on CVB3 [1], the “SI (CC50/EC50), CVB3” value is reported as 6.0; the “inhibitory activity against CVB3 infection (in words)” value is “significant inhibitory activities”; the “protection against CVB3-induced CPEs (microscopy)” value was “almost complete protection”; the EC50 came to 24.6 ± 8.7 µM. Besides, in the data set with CVB3 [1], the inhibition at 160 µM worked out at 73%. In addition, in the data set on ADV7, the “SI (CC50/EC50), ADV7” value worked out at 9.8; the “inhibitory activity against ADV7 infection (in words)” value was “significant inhibitory activities”; the “protection against ADV7-induced CPEs (microscopy)” value is “almost complete protection”; the EC50 turned out to be 27.1 ± 9 µM. Also, in the data set on ADV7, the inhibition at 160 µM is 81.4%. Moreover, the “virus titer during virus attachment (adsorption/entry)” value in the data set with CVB3 [2] is “no significant decrease in virus titer”. The “progeny virus titer” value with CVB3 [3] is “progeny virus titers were reduced”.
For `Cc1ccc(OC(=O)C(C)(C)C)c(-c2ccccn2)c1` [W13], in the data set with CVB3 [1], the “SI (CC50/EC50), CVB3” value stood at 10.2; the “inhibitory activity against CVB3 infection (in words)” value is recorded as “significant inhibitory activities”; the “protection against CVB3-induced CPEs (microscopy)” value is on record as “almost complete protection”; the EC50 is 41.6 ± 11.5 µM. The inhibition at 160 µM in the data set on CVB3 [1] came out at 92.8%. Further, in the data set with ADV7, the “SI (CC50/EC50), ADV7” value was over 10; the “inhibitory activity against ADV7 infection (in words)” value is reported as “significant inhibitory activities”; the “protection against ADV7-induced CPEs (microscopy)” value is listed as “almost complete protection”; the EC50 came to 36.4 ± 16.4 µM. In addition, the inhibition at 160 µM with ADV7 was determined as 83.9%. The “SI (CC50/EC50), ADV7” value in the data set on ADV7 (listed as W-13) was over 10. Besides, the “virus titer during virus attachment (adsorption/entry)” value with CVB3 [2] is “no significant decrease in virus titer”. Besides, in the data set on CVB3 [3], the “progeny virus titer” value is given as “progeny virus titers were reduced”.
As for `CC(=O)Oc1ccc(-c2ccccn2)c(OC(=O)c2ccccc2)c1` [W15], in the data set on CVB3 [1], the “SI (CC50/EC50), CVB3” value worked out at 6.5; the “inhibitory activity against CVB3 infection (in words)” value is given as “significant inhibitory activities”; the “protection against CVB3-induced CPEs (microscopy)” value is recorded as “almost complete protection”; the EC50 turned out to be 69.7 ± 15 µM. In addition, in the data set with CVB3 [1], the inhibition at 160 µM turned out to be 90%. Moreover, in the data set on ADV7, the “SI (CC50/EC50), ADV7” value is 12.2; the “inhibitory activity against ADV7 infection (in words)” value is reported as “significant inhibitory activities”; the “protection against ADV7-induced CPEs (microscopy)” value is “almost complete protection”; the EC50 was determined as 65.2 ± 21.6 µM. Besides, the inhibition at 160 µM in the data set with ADV7 came out at 89.4%. In addition, the “virus titer during virus attachment (adsorption/entry)” value in the data set on CVB3 [2] is listed as “no significant decrease in virus titer”. For the same molecule, in the data set with CVB3 [3], the “progeny virus titer” value is “progeny virus titers were reduced”.
